# Structures can show the parent of a compound that is named as a salt.
# System: C57BL/6 mice
# Test: animal or person
# Assay type: in vivo
# Settings: Mus musculus, sc, 0.5 h, s.c. administration, 30 min, 55° C. water, read-out: ED50 (mg/kg) at 30 min on C57BL/6 mice in Warm-water Tail-flick Test
row,Compound,ED50 [mg/kg]
1,"CC(=O)Nc1ccc(CN2CCC(CCc3ccccc3)(C3OC3C)CC2)cc1 (stereo not drawn) [Compound 118, N-(4-((4-(3-methyloxiran-2-yl)-4-phenethylpiperidin-1-yl)methyl)phenyl)acetamide]",> 10
2,"CCOCC1(CCc2ccccc2)CCN(Cc2ccc3[nH]c(=O)oc3c2)CC1 [Compound 111, 6-((4-(ethoxymethyl)-4-phenethylpiperidin-1-yl)methyl)benzo[d]oxazol-2(3H)-one]",> 10
3,"COc1ccc(C2(/C=C\c3ccccc3)CCN(Cc3ccc(NC(C)=O)cc3)CC2)nc1 [Compound 63, (Z)-N-(4-((4-(5-methoxypyridin-2-yl)-4-styrylpiperidin-1-yl)methyl)phenyl)acetamide]",> 10
4,"CCOC[C@@]1(CCc2cccs2)CCN(Cc2cccnc2C)C1 [Compound 428, (S)-3-((3-(ethoxymethyl)-3-(2-(thiophen-2-yl)ethyl)pyrrolidin-1-yl)methyl)-2-methylpyridine]",< 10
5,"CC(=O)Nc1ccc(CN2CCC(CCc3ccccc3)(CN(C)C(C)=O)CC2)cc1 [Compound 57, N-((1-(4-acetamidobenzyl)-4-phenethylpiperidin-4-yl)methyl)-N-methylacetamide]",> 10
6,"CCOCC1(CCc2ccc(Cl)cc2)CCN(Cc2cccnc2)C1 (stereo not drawn) [Compound 289, 3-((3-(4-chlorophenethyl)-3-(ethoxy-methyl)pyrrolidin-1-yl)methyl)pyridine]",> 10
7,"CCOCC1(CCc2ccccc2)CCN(Cc2ccc(-c3ncc[nH]3)cc2)CC1 [Compound 140, 1-(4-(1H-imidazol-2-yl)benzyl)-4-(ethoxymethyl)-4-phenethylpiperidine]",> 10
8,"CCOCC1(CCc2ccccc2)CN(Cc2ccc(NC(C)=O)cc2)C1.Cl [Compound 97, N-(4-((3-(ethoxymethyl)-3-phenethylazetidin-1-yl)methyl)phenyl)acetamide HCl]",> 10
9,"CCOCC1(CCc2ccccc2)CCN(Cc2ccc(-c3cnc[nH]3)cc2)CC1 [Compound 141, 1-(4-(1H-imidazol-5-yl)benzyl)-4-(ethoxymethyl)-4-phenethylpiperidine]",> 10
10,"CCOCC1(CCc2ccccc2)CCN(C(C)c2ccc(C)nc2C)C1 (stereo not drawn) [Compound 305, 3-(1-(3-(ethoxymethyl)-3-phenethylpyrrolidin-1-yl)ethyl)-2,6-dimethylpyridine]",< 10
11,"CC(=O)Nc1ccc(CN2CCC(CCc3ccccc3)(COC3CCCC3)CC2)cc1 [Compound 113, N-(4-((4-(cyclopentyloxy-methyl)-4-phenethylpiperidin-1-yl)methyl)phenyl)acetamide]",> 10
12,"CCOCC1(CCc2ccccc2)CCN(Cc2ccc(-c3cncs3)cc2)CC1 [Compound 139, 5-(4-((4-(ethoxymethyl)-4-phenethylpiperidin-1-yl)methyl)phenyl)thiazole]",> 10
13,"CCOCC1(CCc2ccc(OC)cc2)CCN(Cc2ccc(NC(C)=O)cc2)CC1.Cl [Compound 106, N-(4-((4-(ethoxymethyl)-4-(4-methoxy-phenethyl)piperidin-1-yl)methyl)phenyl)acetamide HCl]",> 10
14,"CCOCC1(CCc2ccccc2)CCN(Cc2ccc(NC(N)=O)cc2)CC1 [Compound 83, 1-(4-((4-(ethoxymethyl)-4-phenethylpiperidin-1-yl)methyl)phenyl)urea]",> 10
15,"CCOCC1(CCc2cc(C)cs2)CCN(Cc2cnn(C)c2)CC1 [Compound 267, 4-(ethoxymethyl)-1-((1-methyl-1H-pyrazol-4-yl)methyl)-4-(2-(4-methylthiophen-2-yl)ethyl)piperidine]",< 10
16,"CC(=O)Nc1ccc(CN2CCC(CCc3ccccc3)(COC(C)=O)CC2)cc1 [Compound 58, (1-(4-acetamidobenzyl)-4-phenethylpiperidin-4-yl)methyl acetate]",> 10
17,"CCOCC1(CCc2ccccc2)CCN(Cc2ccc(CC(=O)NC)cc2)CC1 [Compound 162, 2-(4-((4-(ethoxymethyl)-4-phenethylpiperidin-1-yl)methyl)phenyl)-N-methylacetamide]",> 10
18,CNC(=O)C1(CCc2ccccc2)CCN(Cc2ccc(NC(C)=O)cc2)CC1 [Compound 65],> 10
19,"CCOCC1(CCc2ccccc2)CCN(Cc2csc(C)n2)C1 (stereo not drawn) [Compound 340, 4-((3-(ethoxymethyl)-3-phenethylpyrrolidin-1-yl)methyl)-2-methylthiazole]",> 10
20,"CC(=O)Nc1ccc(CN2CCC(CCc3ccccc3)(C(=O)N(C)C)CC2)cc1 [Compound 66, 1-(4-acetamidobenzyl)-N,N-dimethyl-4-phenethylpiperidine-4-carboxamide]",> 10
21,"CC(=O)Nc1ccc(CN2CCC(CCc3ccccc3)(C3OCC=C3C)C2)cc1 (stereo not drawn) [Compound 216, N-(4-((3-(3-methyl-2,5-dihydrofuran-2-yl)-3-phenethylpyrrolidin-1-yl)methyl)phenyl)acetamide]",< 10
22,CCOC[C@@]1(CCc2ccc(=O)[nH]c2)CCN(C(C)(C)c2ccc(C)nc2)C1.Cl [Compound 376],< 10
23,"Cc1ccc(CN2CCC(CCc3ccccc3)(C3CCCO3)C2)cn1 (stereo not drawn) [Compound 264, 2-methyl-5-((3-phenethyl-3-(tetrahydrofuran-2-yl)pyrrolidin-1-yl)methyl)pyridine]",< 10

row,Compound,ED50 [mg/kg]
1,"CCOCC1(CCc2ccccc2)CCN(Cc2ccc(CC(N)=O)cc2)CC1 [Compound 161, 2-(4-((4-(ethoxymethyl)-4-phenethylpiperidin-1-yl)methyl)phenyl)acetamide]",> 10
2,"CCOCC1(CCc2ccsc2)CCN(Cc2ccc(NC(C)=O)cc2)C1 (stereo not drawn) [Compound 178, N-(4-((3-(ethoxymethyl)-3-(2-(thiophen-3-yl)ethyl)pyrrolidin-1-yl)methyl)phenyl)acetamide]",< 10
3,"CCOCC1(CCc2ccccc2)CCN(c2ccc(NC(C)=O)cc2)CC1 [Compound 125, N-(4-(4-(ethoxymethyl)-4-phenethylpiperidin-1-yl)phenyl)acetamide]",> 10
4,"Cn1ccc(CN2CCC(CCc3ccccc3)(C3CCCO3)C2)c1 (stereo not drawn) [Compound 224, 1-methyl-3-((3-phenethyl-3-(tetrahydrofuran-2-yl)pyrrolidin-1-yl)methyl)-1H-pyrrole]",> 10
5,"CCOCC1(CCc2ccccc2OC)CCN(Cc2ccc(NC(C)=O)cc2)CC1 [Compound 170, N-(4-((4-(ethoxymethyl)-4-(2-methoxy-phenethyl)piperidin-1-yl)methyl)phenyl)acetamide]",> 10
6,"CCOCC1(CCc2cccs2)CN(Cc2ccc(C)nc2)C1 [Compound 429, 5-((3-(ethoxymethyl)-3-(2-(thiophen-2-yl)ethyl)azetidin-1-yl)methyl)-2-methylpyridine]",< 10
7,"COC[C@@]1(CCc2csc(C)c2)CCN(C(=O)c2ccc(C)nc2)C1 [Compound 381, (S)-(3-(methoxymethyl)-3-(2-(5-methylthiophen-3-yl)ethyl)pyrrolidin-1-yl)(6-methylpyridin-3-yl)methanone]",> 10
8,"CC(=O)Nc1ccc(CN2CCC(CCc3ccccc3)(C3CC=CCO3)CC2)cc1 (stereo not drawn) [Compound 73, N-(4-((4-(3,6-dihydro-2H-pyran-2-yl)-4-phenethylpiperidin-1-yl)methyl)phenyl)acetamide]",> 10
9,"CC(=O)Nc1ccc(CN2CCC(CCc3ccccc3)(C(N)=O)CC2)cc1 [Compound 60, 1-(4-acetamidobenzyl)-4-phenethylpiperidine-4-carboxamide]",> 10
10,"CCOCC1(CCc2ccsc2)CCN(Cc2cnn(C)c2)C1 (stereo not drawn) [Compound 250, 4-((3-(ethoxymethyl)-3-(2-(thiophen-3-yl)ethyl)pyrrolidin-l-yl)methyl)-1-methyl-1H-pyrazole]",< 10
11,"CCOC[C@@]1(CCc2nc3ncncc3n2Cc2ccc(OC)cc2)CCN(C(C)(C)c2ccc(C)nc2)C1 [Compound 461, (S)-8-(2-(3-(ethoxymethyl)-1-(2-(6-methylpyridin-3-yl)propan-2-yl)pyrrolidin-3-yl)ethyl)-7-(4-methoxybenzyl)-7H-purine citrate]",< 10
12,CC(=O)Nc1ccc(CN2CCC(CCc3ccccc3)(c3ccsc3)CC2)cc1 [Compound 3],> 10
13,"COc1ccc(C2(CCc3ccccc3)CCN(Cc3ccc(NC(C)=O)cc3)CC2)nc1 [Compound 38, N-(4-((4-(5-methoxypyridin-2-yl)-4-phenethylpiperidin-1-yl)methyl)phenyl)acetamide]",> 10
14,"CCOC1(CCc2cccs2)CCN(Cc2cccnc2)C1 (stereo not drawn) [Compound 393, 3-((3-ethoxy-3-(2-(thiophen-2-yl)ethyl)pyrrolidin-1-yl)methyl)pyridine]",> 10
15,"c1ccc(CCC2(C3CCCO3)CCN(Cc3cncnc3)C2)cc1 (stereo not drawn) [Compound 237, 5-((3-phenethyl-3-(tetrahydrofuran-2-yl)pyrrolidin-1-yl)methyl)pyrimidine]",> 10
16,CC(=O)Nc1ccc(CN2CCC(CCc3ccsc3)(C3CCO3)C2)cc1 (stereo not drawn) [Compound 191],< 10
17,"CCn1nnn(CCN2CCC(CCc3ccccc3)(C3CCCO3)C2)c1=O (stereo not drawn) [Compound 192, 1-ethyl-4-(2-(3-phenethyl-3-(tetrahydrofuran-2-yl)pyrrolidin-1-yl)ethyl)-1H-tetrazol-5(4H)-one]",> 10
18,"CCOCC1(CCc2ccccc2)CCN(Cc2ccccc2)CC1 [Compound 78, 1-benzyl-4-(ethoxymethyl)-4-phenethylpiperidine]",> 10
19,"Cc1ccc(CN2CC[C@@](CO)(CCc3cccs3)C2)cn1 [Compound 413, (S)-(1-((6-methylpyridin-3-yl)methyl)-3-(2-(thiophen-2-yl)ethyl)pyrrolidin-3-yl)methanol]",< 10
20,"CCOC[C@@]1(CCc2ccsc2)CCN(Cc2cnn(C)c2)C1.Cl [Compound 384, (S)-4-((3-(ethoxymethyl)-3-(2-(thiophen-3-yl)ethyl)pyrrolidin-1-yl)methyl)-1-methyl-1H-pyrazole HCl]",< 10
21,"CC(=O)Nc1ccc(CN2CCC(CCc3ccccc3)(C3CCCO3)CC2)cc1 (stereo not drawn) [Compound 69, N-(4-((4-phenethyl-4-(tetrahydrofuran-2-yl)piperidin-1-yl)methyl)phenyl)acetamide]",< 10
22,"CCOC[C@]1(CCc2ccccc2)CCN(Cc2cnn(C)c2)C1 [Compound 234, (R)-4-((3-(ethoxymethyl)-3-phenethylpyrrolidin-1-yl)methyl)-1-methyl-1H-pyrazole]",> 10
